Measurements from US9155693B2, “Solubilized magnolol analogs” (Colgate-Palmolive Company, priority 2011, dated 2015).

Tests used:
[1] = assay type: physicochemical
From the text: The PPG-1-PEG-9 lauryl glycol ether is capable of solubilizing up to 100 g per liter of neat propyl magnolol or isopropyl magnolol or up to 50 g per liter of butyl magnolol or isobutyl magnolol. In certain embodiments, the amount of PPG-1-PEG-9 lauryl glycol ether is at least 10 times the weight of the propyl magnolol or isopropyl magnolol in the composition. In certain embodiments, the amount of PPG-1-PEG-9 lauryl glycol ether is at least 20 times the weight of butyl or isobutyl magnolol in the composition.
PPG-1-PEG-9 lauryl glycol ether is available as Eumulgin™ L from Cognis Corporation.

[2] = Solubility of magnolol analogs in the combination of PPG-1-PEG-9 lauryl glycol ether, coceth-7 and PEG-40 hydrogenated castor oil (Eumulgin HPS); assay type: physicochemical; settings: PPG-1-PEG-9 lauryl glycol ether in combination with coceth-7 and PEG-40 hydrogenated castor oil (Eumulgin HPS)
From the text: The PPG-1-PEG-9 lauryl glycol ether can also be included in combination with coceth-7 and PEG-40 hydrogenated castor oil. This combination is available as Eumulgin™ HPS from Cognis Corporation. When this combination is used, the solubility stays the same except for butyl magnolol. This combination solubilizes up to 100 g per liter of butyl magnolol as compared to up to 50 g per liter for PPG-1-PEG-9 lauryl glycol ether alone. In certain embodiments, the amount of this combination is at least 10 times the weight of butyl magnolol.

Row | SMILES | amount solubilized by PPG-1-PEG-9 lauryl glycol ether [1] | amount solubilized by the combination [2]
1 | CC(C)c1ccc(O)c(-c2cc(C(C)C)ccc2O)c1 [isopropyl magnolol, 5,5′-di-isopropylbiphenyl-2,2′-diol] | up to 100 g per liter | 
2 | CC(C)Cc1ccc(O)c(-c2cc(CC(C)C)ccc2O)c1 [isobutyl magnolol, 5,5′-di-isobutylbiphenyl-2,2′-diol] | up to 50 g per liter | 
3 | CCCc1ccc(O)c(-c2cc(CCC)ccc2O)c1 [propyl magnolol, 5,5′-di-n-propylbiphenyl-2,2′-diol] | up to 100 g per liter | 
4 | CCCCc1ccc(O)c(-c2cc(CCCC)ccc2O)c1 [butyl magnolol, 5,5′-di-n-butylbiphenyl-2,2′-diol] | up to 50 g per liter | up to 100 g per liter
